Where a name gives a salt, the structure may show the parent alone. Read-outs that look alike come from different tables or passages of the source.
Assays:
[1] = target: full-length P. pyralis luciferase (Photinus pyralis, UniProt P08659, K549A/L550V/N119G/N50D/S548I); assay type: cell-based
[2] = target: T1, FGF14:Nav1.6 C-tail complex (Homo sapiens, UniProt Q92915+Q9UQD0); test: Split-luciferase complementation assay (LCA) in Clone V double stable HEK293 cells; assay type: cell-based
T1 construct: polymerase chain reaction (PCR) amplification of the FGF14 open reading frame (nt 1–855); C-terminal fragment of Nav1.6 (amino acids 1763–1976) fused with CD4ΔC-tail (amino acids 1–395); expressed in transfected cells
T1 sequence (Q92915 1-252 isoform Q92915-2): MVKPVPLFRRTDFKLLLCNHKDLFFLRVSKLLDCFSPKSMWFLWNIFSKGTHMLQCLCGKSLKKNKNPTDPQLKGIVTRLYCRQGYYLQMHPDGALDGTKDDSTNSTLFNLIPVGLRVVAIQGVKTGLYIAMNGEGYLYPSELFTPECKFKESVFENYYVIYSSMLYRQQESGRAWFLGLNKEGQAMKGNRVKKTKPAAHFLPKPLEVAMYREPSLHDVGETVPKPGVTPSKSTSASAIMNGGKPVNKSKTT
T1 sequence (Q9UQD0 1763-1976 limits assumed): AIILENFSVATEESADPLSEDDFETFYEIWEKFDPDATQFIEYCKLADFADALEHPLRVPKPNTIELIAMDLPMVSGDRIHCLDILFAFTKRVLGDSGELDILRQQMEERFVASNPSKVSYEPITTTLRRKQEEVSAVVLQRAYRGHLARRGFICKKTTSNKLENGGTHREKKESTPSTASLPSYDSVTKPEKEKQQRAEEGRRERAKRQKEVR

[3] = CC_NCI screening, full-length luciferase counter-screen luminescence, normalized to on-plate 0.3% DMSO controls
[4] = CC_NCI screening, full-length luciferase counter-screen, normalized to on-plate 0.3% DMSO controls
[5] = CC_NCI screening, LCA luminescence, biological replicate Set 1, normalized to on-plate 0.3% DMSO controls (n=16 per plate)
[6] = CC_NCI screening, LCA luminescence, biological replicate Set 2, normalized to on-plate 0.3% DMSO controls (n=16 per plate)
[7] = CC_NCI screening, LCA, biological replicate Set 1, normalized to on-plate 0.3% DMSO controls
[8] = CC_NCI screening, LCA, biological replicate Set 2, normalized to on-plate 0.3% DMSO controls
[9] = CC_NCI screening, average of Set 1 and Set 2, normalized to 0.3% DMSO controls
[10] = CC_NCI screening, normalized to on-plate 0.3% DMSO controls
[11] = CC_NCI screening, biological replicate Set 1, normalized to on-plate 0.3% DMSO controls
[12] = CC_NCI screening, biological replicate Set 1, normalized to on-plate 0.3% DMSO controls (n=16 per plate)
[13] = CC_NCI screening, biological replicate Set 2, normalized to on-plate 0.3% DMSO controls
[14] = CC_NCI screening, biological replicate Set 2, normalized to on-plate 0.3% DMSO controls (n=16 per plate)
[15] = average of Set 1 and Set 2, normalized to 0.3% DMSO controls

Sequence of full-length P. pyralis luciferase (P08659 whole entry N50D/N119G/S548I/K549A/L550V, looked up): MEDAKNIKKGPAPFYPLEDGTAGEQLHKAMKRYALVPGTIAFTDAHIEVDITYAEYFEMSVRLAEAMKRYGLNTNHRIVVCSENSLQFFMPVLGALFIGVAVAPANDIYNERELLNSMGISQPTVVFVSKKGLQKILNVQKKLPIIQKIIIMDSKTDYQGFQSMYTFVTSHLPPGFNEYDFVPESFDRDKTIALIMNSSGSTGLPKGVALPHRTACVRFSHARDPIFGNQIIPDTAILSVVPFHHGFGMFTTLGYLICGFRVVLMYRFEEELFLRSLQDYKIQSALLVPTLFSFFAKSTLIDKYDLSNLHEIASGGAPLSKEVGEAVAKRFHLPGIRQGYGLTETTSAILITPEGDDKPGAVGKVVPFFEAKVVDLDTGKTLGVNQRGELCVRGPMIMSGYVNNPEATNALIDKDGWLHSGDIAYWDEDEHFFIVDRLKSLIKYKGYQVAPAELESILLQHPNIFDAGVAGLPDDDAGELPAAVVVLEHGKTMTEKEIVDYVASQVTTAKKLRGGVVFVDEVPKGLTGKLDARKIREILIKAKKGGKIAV

SMILES	Luciferase Assay % Lum [1, 3] [%]	Luciferase Assay Z-score [1, 4]	Toxicity Assay % Fluor (Clone V cells; human, 16 h, 30 µM) [%]	Toxicity Assay Z-score (Clone V cells; human, 16 h, 30 µM)	Split Luciferase Assay % Lum Set 1 [2, 5] [%]	Split Luciferase Assay %Lum Set 2 [2, 6] [%]	Split Luciferase Assay Z-score Set 1 [2, 7]	Split Luciferase Assay Z-score Set 2 [2, 8]	Split Luciferase Assay %Lum Avg [2, 9] [%]	other results
Cc1cc2c(F)c(Oc3ncnn4cc(OC[C@@H](C)O)c(C)c34)ccc2[nH]1 [Brivanib]	64.23	-4.58	92.51	-1.05	34.03	35.37	-5.33	-5.26	34.70	
COc1ccc2c(c1)CC[C@@H]1[C@@H]2CC[C@]2(C)[C@@H](NCCCCCCN3C(=O)C=CC3=O)CC[C@@H]12 [U 73122]	109.98	1.28			128.60	129.00	2.31	2.36	128.80	Toxicity Assay % Fluor (Clone V cells): 102.60%; Toxicity Assay Z-score (Clone V cells): 0.36
NC(=O)c1ccc(-c2nc(-c3ccc4c(c3)OCO4)c(-c3ccccn3)[nH]2)cc1 [SB 431542]	93.14	-0.88	90.72	-1.30	112.30	114.43	0.99	1.17	113.37	
CN1CCN(c2ccc3nc(-c4c(N)c5c(F)cccc5[nH]c4=O)[nH]c3c2)CC1 [CHIR 258]	93.31	-0.86	81.15	-2.64	66.64	66.58	-2.70	-2.72	66.61	
COc1cc2ncn(-c3cc(OCc4ccccc4C(F)(F)F)c(C(N)=O)s3)c2cc1OC [GW 843682X]	102.89	0.37	106.44	0.90	163.39	170.61	5.12	5.75	167.00	
COc1ccc2c(c1OC)N=C(NC(=O)c1cccnc1)N1CCN=C21 [PIK 90]										Luciferase Assay % Lum (full-length luciferase counter-screen) [1, 10]: 102.65%; Luciferase Assay Z-score (full-length luciferase counter-screen) [1, 10]: 0.34; Toxicity Assay % Fluor (CTB cell viability fluorescence) (Clone V cells): 101.53%; Toxicity Assay Z-score (CTB cell viability) (Clone V cells): 0.21; Split Luciferase Assay Z-score Set 1 [2, 11]: -0.15; Split Luciferase Assay % Lum Set 1 [2, 12]: 98.17%; Split Luciferase Assay Z-score Set 2 [2, 13]: -1.11; Split Luciferase Assay %Lum Set 2 [2, 14]: 86.35%; Split Luciferase Assay %Lum Avg [2, 15]: 92.26%
CO[C@H]1C[C@@H]2CC[C@@H](C)[C@@](O)(O2)C(=O)C(=O)N2CCCC[C@H]2C(=O)O[C@H]([C@H](C)C[C@@H]2CC[C@@H](OC(=O)C(C)(CO)CO)[C@H](OC)C2)CC(=O)[C@H](C)/C=C(\C)[C@@H](O)[C@@H](OC)C(=O)[C@H](C)C[C@H](C)/C=C/C=C/C=C/1C [Temsirolimus]	68.61	-4.02			50.33	62.42	-4.01	-3.06	56.38	Toxicity Assay % Fluor (Clone V cells): 93.12%; Toxicity Assay Z-score (Clone V cells): -0.96
Fc1ccc(Cl)cc1-c1nc(Nc2ccncc2)c2nccnc2n1 [SD 208]										Luciferase Assay % Lum (full-length luciferase counter-screen) [1, 10]: 88.62%; Luciferase Assay Z-score (full-length luciferase counter-screen) [1, 10]: -1.46; Toxicity Assay % Fluor (CTB cell viability fluorescence) (Clone V cells): 107.60%; Toxicity Assay Z-score (CTB cell viability) (Clone V cells): 1.06; Split Luciferase Assay Z-score Set 2 [2, 13]: -3.73; Split Luciferase Assay %Lum Set 2 [2, 14]: 54.10%; Split Luciferase Assay %Lum Avg [2, 15]: 95.16%
CCCS(=O)(=O)Nc1ccc(F)c(C(=O)c2c[nH]c3ncc(Cl)cc23)c1F [PLX4720, reference compound]			93.90	-0.85						Luciferase Assay % Lum [1]: 79.36%; Luciferase Assay Z-score [1]: -2.64; IMin (% Luminescence) [2]: 36.71 % Luminescence; Split Luciferase Assay % Lum Set 1 [2]: 30.77%; Split Luciferase Assay %Lum Avg [2]: 36.71%; Split Luciferase Assay %Lum Set 2 [2]: 42.65%; Split Luciferase Assay Z-score Set 1 [2]: -5.60; Split Luciferase Assay Z-score Set 2 [2]: -4.67; Z-score (LCA primary screening) [2]: −5.13; IC50 ([2]; estimated, 8-point dose response 0.25-30 µM, n = 4 per concentration, library compounds, read-out: IC50): 2140 nM
C[S+]([O-])c1ccc(-c2nc(-c3ccncc3)c(-c3ccc(F)cc3)[nH]2)cc1 (stereo not shown) [SB 203580, reference compound]			95.56	-0.62						Luciferase Assay % Lum [1]: 80.35%; Luciferase Assay Z-score [1]: -2.52; EMax (% Luminescence) [2]: 152.42 % Luminescence; Split Luciferase Assay %Lum Avg [2]: 152.42%; Split Luciferase Assay %Lum Set 2 [2]: 166.45%; Split Luciferase Assay Z-score Set 1 [2]: 3.10; Split Luciferase Assay Z-score Set 2 [2]: 5.41; Z-score (LCA primary screening) [2]: 4.25; dose-dependent behavior in LCA [2]: mild inhibition at lower concentrations (0.5–2 µM) and stimulation at higher concentrations
O=C(CCCCCCC(=O)Nc1ccccc1)NO [VORINOSTAT]										Luciferase Assay % Lum (full-length luciferase counter-screen) [1, 10]: 84.44%; Luciferase Assay Z-score (full-length luciferase counter-screen) [1, 10]: -1.99; Toxicity Assay % Fluor (CTB cell viability fluorescence) (Clone V cells): 108.87%; Toxicity Assay Z-score (CTB cell viability) (Clone V cells): 1.24; Split Luciferase Assay Z-score Set 1 [2, 11]: 0.47; Split Luciferase Assay % Lum Set 1 [2, 12]: 105.78%; Split Luciferase Assay Z-score Set 2 [2, 13]: -1.96; Split Luciferase Assay %Lum Set 2 [2, 14]: 75.94%; Split Luciferase Assay %Lum Avg [2, 15]: 90.86%
COc1cccc2c1C(=O)c1c(O)c3c(c(O)c1C2=O)C[C@@](O)(C(=O)CO)C[C@@H]3O[C@H]1C[C@H](N)[C@H](O)[C@H](C)O1 [Doxorubicin hydrochloride]	78.74		94.10	-0.82	49.25	58.26	-4.10	-3.40	53.75	
CNC(=O)c1ccccc1Sc1ccc2c(/C=C/c3ccccn3)n[nH]c2c1 [Axitinib]	24.49	-9.67			32.94	31.21	-5.42	-5.60	32.07	Toxicity Assay % Fluor (Clone V cells): 91.66%; Toxicity Assay Z-score (Clone V cells): -1.17
CC(=O)Nc1cccc(-n2c(=O)n(C3CC3)c(=O)c3c(Nc4ccc(I)cc4F)n(C)c(=O)c(C)c32)c1 [Trametinib]	95.81	-0.54	92.79	-1.01	101.43	79.06	0.12	-1.70	90.25	
NCCCNCCSP(=O)(O)O [Amifostine]			93.47	-0.91	109.04	116.51	0.73	1.34	112.78	Luciferase Assay % Lum [1]: 101.20%; Luciferase Assay Z-score [1]: 0.15
COc1cc(Nc2c(C#N)cnc3cc(OCCCN4CCN(C)CC4)c(OC)cc23)c(Cl)cc1Cl [Bosutinib]	70.20	-3.82			10.11	17.69	-7.26	-6.70	13.90	Toxicity Assay % Fluor (Clone V cells): 75.29%; Toxicity Assay Z-score (Clone V cells): -3.45
COc1ccc(Cl)cc1[C@]1(F)C(=O)Nc2cc(C(F)(F)F)ccc21 [BMS 204352]	36.55	-8.12	103.30	0.46	10.11	17.69	-7.26	-6.70	13.90	
COc1cc2ncnc(Nc3ccc(F)c(Cl)c3)c2cc1OCCCN1CCOCC1 [Gefitinib]			87.95	-1.68	97.08	102.99	-0.24	0.24	100.03	Luciferase Assay % Lum [1]: 85.80%

Reference: publication PMC6858373 (Scientific Reports, 2019)
